Experimental findings from patent US8697643B2, “Method for controllably releasing a drug conjugate within subcutaneous tissue in response to the local concentration of an indicator” (priority 2005, dated 2014) are described below.

Series [1] relates to fasted normal rats (Male Sprague-Dawley). The series is described as follows: blood glucose depression and serum insulin profiles after subcutaneous injection. Type of series: in vivo, rat. The protocol:
Subcutaneous injections of insulin-polymer conjugates or insulin controls are administered at a dose between 1 and 10 equivalent U insulin/kg body weight behind the neck of fasted normal […] rats (Male Sprague-Dawley, 200-250 g, n=2-4). Blood samples are collected via tail vein bleeding at −15 and 0 minutes, and at 15, 30, 45, 60, 90, 120, 180, 240, 300 and 360 minutes after injection. Blood glucose values are measured using commercially available test strips (Precision Xtra, Abbott Laboratories, Abbott Park, Ill.). The remaining blood is centrifuged to obtain serum and stored in a freezer until measured for serum insulin levels. Serum insulin is measured using an ELISA kit (ALPCO Diagnostics, Windham, N.H.). Pharmacodynamic (PD) parameters such as time to reach minimum blood glucose concentration (Tnadir) and duration over which the blood glucose level remains below 70% of initial value (T70% BGL), are determined according to published methods for subcutaneous delivery. Pharmacokinetic (PK) parameters such as time to reach maximum serum insulin concentration (Tmax), mean insulin residence time (MRT), and mean insulin absorption time (MAT), are determined according to published methods for subcutaneous delivery using commercially available ELISA assays (ALPCO Diagnostics, Windham, N.H.). The blood glucose depression curve and corresponding serum insulin profile for each formulation may then be compared to those obtained for an insulin control to determine any differences in the timing and extent of the insulin action.
The in vivo digestion behavior of the insulin-glycogen conjugate was assessed via subcutaneous injection (alone without a glucose-binding molecule such as Con A) into normal male SD rats.
Subcutaneous injections of insulin-dextran were administered using 0.25 ml of a sterilized 1×PBS solution (0.88 equivalent mg insulin/[…]) behind the neck of two fasted normal rat groups (Male Sprague-Dawley, 200-250 g, n=4). Measurements of glucose and insulin values from tail vein blood samples were performed at −15 and 0 minutes, and at 15, 30, 45, 60, 90, 120, 180, 240, 300 and 360 minutes after injection.

The target in another series is T1, human salivary amylase (Homo sapiens, UniProt P0DUB6).
T1 construct: from tissue; host or cells: human saliva (whole, diluted in 1x PBS)
T1 sequence (P0DUB6 16-511): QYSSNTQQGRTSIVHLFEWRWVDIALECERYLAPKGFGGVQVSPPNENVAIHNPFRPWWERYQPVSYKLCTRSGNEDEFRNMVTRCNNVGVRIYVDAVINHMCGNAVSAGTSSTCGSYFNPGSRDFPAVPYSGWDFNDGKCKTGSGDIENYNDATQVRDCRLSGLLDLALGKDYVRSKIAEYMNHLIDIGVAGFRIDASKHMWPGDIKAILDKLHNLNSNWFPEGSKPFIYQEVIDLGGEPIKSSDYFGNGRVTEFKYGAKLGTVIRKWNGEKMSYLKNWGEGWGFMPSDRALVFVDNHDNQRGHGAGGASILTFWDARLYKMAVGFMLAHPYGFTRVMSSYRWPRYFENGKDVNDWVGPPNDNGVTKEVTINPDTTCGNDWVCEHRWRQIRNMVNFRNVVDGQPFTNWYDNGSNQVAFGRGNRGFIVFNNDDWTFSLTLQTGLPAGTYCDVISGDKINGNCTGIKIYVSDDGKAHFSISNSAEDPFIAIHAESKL
Kind of series: in vitro amylase digestion assay of insulin-glycogen (SDS-PAGE). As to conditions: SDS-PAGE after incubation with amylase. Type of series: in vitro ADME. As to the method:
As previously discussed, once an insulin-glycogen conjugate is released from an inventive glucose-responsive material, it is digested by amylases that breakdown the large molecular weight insulin-glycogen conjugate into low molecular weight conjugates in vivo. […] An in vitro amylase digestion assay was performed to qualify the proposed insulin-glycogen degradation mechanism. […] The saliva sample was serially diluted 1:2 in 1×PBS buffer to 1:512.90 μL aliquots of each of the 1:4, 1:16, 1:64, 1:128, 1:256, and 1:512 dilutions were added to pre-prepared microcentrifuge tubes containing 90 μL of undiluted insulin-glycogen. […] The gels were run in SDS running buffer for 45 minutes to an hour at a constant voltage of 150 V. Under these conditions, the amylase completely digested the insulin-glycogen conjugate into native MW insulin at the 1:16 dilution level as quantified by the relative band density of high MW conjugate to that of native MW insulin.
SDS-PAGE has confirmed that the insulin-glycogen conjugate is essentially free from unconjugated insulin (FIG. 5a). […] Serum was collected from the other catheter as a function of time and analyzed for fluorescence (fmax, Molecular Devices, Sunnyvale, Calif.) to determine glycogen absorption rate and insulin levels (RIA, Joslin Diabetes Center).

The test system of series [2] is normal and STZ-diabetic rats. Kind of series: disappearance of fluorescently labeled gel components from the injection site. Type of series: in vivo, rat. As to conditions: gel injected under the skin. From the text:
The inventive gel of Example 21, has viscosity characteristics that allow easy loading and injection through a standard 27½G insulin syringe obviating the need for invasive surgery. […] This is necessary to avoid unwanted material accumulation after repeated daily dosing. To illustrate this point, gels were synthesized from (i) fluorescently-labeled insulin-glycogen conjugate (FITC-conjugate)/unlabeled Con A and (ii) unlabeled insulin-glycogen conjugate/fluorescently-labeled Con A (FITC-Con A) in the presence of India ink (SpeedBall® Superblack) and injected under the skin of both normal and STZ-diabetic rats on Days 2, 1, and 0 in order to simultaneously observe the injection site post-mortem and monitor the rate of disappearance of each of the components by fluorescence imaging.
Taken together, not only is the insulin-glycogen conjugate removed completely from the injection site, its rate of disappearance is dependent on the glycemic state of the animal (i.e. hyperglycemia leads to more rapid elimination of material from the site).

For another series, the system named is non-diabetic felines. Kind of series: euglycemic clamp protocol in non-diabetic felines. Type of series: in vivo, feline. Particulars: 0.5 U/kg conjugate (FIG. 6).
[3] abbreviates: s.c. 0.25 ml, fasted normal male SD rats.
[4] abbreviates: FIG. 4b, s.c. 2.5 U of conjugated insulin/kg, male SD rats.
The mark [5] stands for this setting: s.c. injection alone, normal male SD rats.

Consider “insulin-dextran: human recombinant insulin coupled to dextran (MW=70K) by CNBr; comparative conjugate [reference compound]”, for which, in series [1] (setting [3]), the “time serum glucose levels remain depressed post injection” value is recorded as “at least five”, the “time to reach the glucose nadir (Tnadir)” value is given as “about 3 h” and the “time to return to within 70% of fasting glucose levels (T70% BGL)” value is listed as “greater than 2.5 hours”.

“insulin-glycogen conjugate: human recombinant insulin covalently linked to glycogen by CNBr or CDAP coupling; glycogen source differs between examples”: the degradation by amylases entry with human salivary amylase is “rapidly degraded by amylases in vitro and in vivo”. Besides, in series [1] (setting [4]), the “T70% BGL” value was approximately 150 min and the “Tnadir (blood glucose)” value was in the range of 30 to 45 min. In series [1] (setting [5]), the “time to reach glucose nadir (Tnadir)” value lay within 30 to 45 min and the “time to return to within 70% of fasting glucose levels (T70% BGL)” value was “less than 180 minutes”. In addition, the “speed of insulin action compared with unconjugated insulin” value in series [1] (s.c., normal male SD rats) is reported as “acts just as rapidly as unconjugated insulin in vivo”. The “elimination from the injection site (fluorescence imaging)” value in series [2] (STZ-diabetic rats) is “completely eliminated from the injection site in STZ-diabetic rats both one and two days after injection”. In addition, the “elimination from the injection site (fluorescence imaging)” value in series [2] (normal rats) is given as “still remained at the injection site after one day”. For the same substance, the “conjugate bioactivity in euglycemic clamp” value in the series on non-diabetic felines was “confirmed the conjugate bioactivity”.
